Columns and labels:
[1] = Fe speciation plot (HySS); format: physicochemical; conditions: for % FeL3 (species 130, neutral/uncharged ferric chelate) at pH 7.4 / % FeL3H2 (species 132) at pH 7.4 / % FeL3H3 (species 133) at pH 7.4 / % FeL3H (species 131) at pH 7.4 / % FeL2H2 at pH 7.4: Fe:ligand 1:10, [Fe]=1×10^−6 M, [L]=1×10^−5 M
Source text: Example 54 illustrates the speciation distribution of several amino fluorinated derivatives of 3-hydroxypyridin-4-(1H)-ones of the invention. The speciation plot (distribution of ferric chelate species) of two compounds of formula I (Apo7067 and Apo7323) at pH 7.4 is provided in the following table.
(§1) After obtaining three pKa values for Apo7323 (ligand), three pKa values for the Fe-Apo7323 complex, and the log β values for Fe-Apo7323 as shown in the following table, a speciation plot (FIG. 14) was constructed using the HySS software program. pFe was also calculated using the HySS software.

[2] = Stepwise formation constants for Fe-ligand system by titration in 0.1M NaCl; format: physicochemical; conditions: for pFe^3+: pH 7.4, ligand 10 μM, metal 1 μM, HySS; for K111 / K122 / K133: stepwise constant, Fe-ligand system, Example 53
Description: Stepwise formation constants for M^n+-ligand systems were determined by spectrophotometric titration when metal complexes have a strong absorbance in the visible region due to ligand to metal charge transfer.
In a typical experiment, the sample solution was prepared according to the following procedure: compound Apo7041 (12.96 mg) was weighed into a 50 mL volumetric flask, and about 40 mL of 0.1 M NaCl was added. The mixture was sonicated for 10 min to give a clear colorless solution. The iron stock solution (atomic absorption standard, Aldrich, 565 μL, 10.00 μmol) was pipetted into the solution, followed by the addition of 1.000 N NaOH (170 μL). More of the 0.1 M NaCl was added to volume and the resulting solution was vortexed to mix. The molar ratio between the total iron and the total Apo7041 was 1/5.1. The mixture was vortexed at rt for 1 h. 20 mL of the sample solution was transferred into a 35 mL beaker by using a 10 mL digital pipet. The sample solution was circulated between the beaker and the flow cell using a sipper system. The sample solution was titrated against hydrochloric acid solutions at 22° C. until the pH reached 0.021. After each addition of acid, the solution was allowed to equilibrate until a constant pH reading was reached. The pH and the UV-Vis spectrum were recorded for each measurement. For each measurement enough acid was added so that there was a slight decrease in the absorbance of the spectrum. Altogether, 68 measurements were taken to finish the experiment.
The resulting data set was then analyzed using pHAB. The formation constants for Fe-Apo7041 system were optimized using the model shown in the first column of the table.
pM^n+ is defined as −log [M(H2O)m]^n+ at physiological conditions, i.e.: pH 7.4, a ligand concentration of 10 μM, and a metal concentration of 1 μM. To calculate pM^n+ for a MLn system, βn and pKa values are needed (βn are the formation constants for M^n++n L^−⇄MLn; pKa are the equilibrium constants for L^−+n H^+⇄LHn^(n-1)+). The pM^n+ is calculated using the HySS software (HYSS© 2000 Protonic Software).
The log β values of the Fe-Apo7323 system were determined by spectrophotometric titration using an Agilent 8453 UV-visible spectroscopy system (see Example 29B). The sample solution was a mixture of Fe^3+ (2×10^−4 M) and Apo7323 (1×10^−3 M) in 0.1 N NaCl aqueous solvent. The titration data in a pH range of 3.408 to 0.655 were fitted with pHAB using the model shown in FIG. 1 to obtain Log β111, Log β122, and Log β133.
The sample solution was a mixture of Fe^3+ (6×10^−3M) and Apo7323 (1.8×10^−2M) in 0.1 N NaCl aqueous solvent. The titration started at pH 1.72 and ended at pH 11.5 using 3 M NaOH as the titrant. The titration data in a pH range of 3 to 10 were fitted with Hyperquad2000 software using the model:
[drawing 175] where 133 is the species (FeL3H3)^3+, 132 is the species is (FeL3H2)^2+, 131 is the species (FeL3H)^+, and 130 is the species FeL3.
as §1

[3] = system: SH-SY5Y human neuroblastoma cells; conditions: for CC2 (cytotoxic concentration): H2O2-treated cells, viability below 80%; for CC1 (cytotoxic concentration): absence of H2O2, viability below 80%
Outline: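 SH-SY5Y cells were treated with a range of compound concentrations, with or without 50 μM H2O2, in serum-free medium for 16–22 h. Viability was measured by MTT and expressed relative to cells receiving neither H2O2 nor compound. Runs without H2O2 assessed cytotoxicity.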

[4] = Oral cassette dosing PK/BBB studies; format: in vivo, male Sprague-Dawley rats; conditions: for BBB penetration: cassette dosing BBB studies in rats, in words; for AUC brain* / Kp / AUC: oral cassette dosing, male Sprague-Dawley rats; for AUC brain* / AUC: AUC normalized to 1 mg/kg dose; for Kp / AUC: rat; for Kp: brain and plasma, read-out: AUC brain/AUC plasma; for AUC: plasma
Description: In-vivo pharmacokinetic (PK) and blood brain barrier (BBB) studies were conducted in male Sprague-Dawley rats using cassette dosing via oral administration. […] No. 15, pp. 652-658.

[5] = 0.1 M NaCl, spectrophotometric titration
[6] = 0.1 M NaCl, spectrophotometric titration, fitted

SMILES | % FeL3 (species 130, neutral/uncharged ferric chelate) at pH 7.4 [1] [%] | pFe^3+ [2] | Log β111 (Fe3+) [2, 5] | Log β122 (Fe3+) [2, 5] | Log β133 (Fe3+) [2, 5] | CC2 (cytotoxic concentration) [3] [µM] | CC1 (cytotoxic concentration) [3] [µM] | AUC brain* [4] [ng·h/mL] | Kp [4] | AUC [4] [ng·h/mL] | % FeL3H2 (species 132) at pH 7.4 [1] [%] | % FeL3H3 (species 133) at pH 7.4 [1] [%] | % FeL3H (species 131) at pH 7.4 [1] [%] | Log β130 (Fe3+) ([2]; Example 53: Log β131 − pKa1(C)) | Log β131 (Fe3+) ([2]; Example 53: Log β132 − pKa2(C)) | Log β132 (Fe3+) ([2]; Example 53: Log β133 − pKa3(C)) | K111 [2] | K122 [2] | K133 [2] | % FeL2H2 at pH 7.4 [1] [%] | other results
Cc1c(O)c(=O)ccn1C [Deferiprone, 3-hydroxy-1,2-dimethylpyridin-4(1H)-one, reference compound] | ~100 | pFe^3+ = 20.2 | – | – | – | – | – | – | – | – | – | – | – | – | – | – | – | – | – | – | Log β130 (Fe3+) ([2]; 0.1 M NaCl, fitted, listed as deferiprone): 37.24; Log β130 (Fe3+) ([2]; 0.1 M NaCl, fitted, listed as drawing 103): Logβ130 = 37.24; Logβ110 (Fe3+) ([2]; 0.1M aqueous NaCl): Logβ110 = 14.85; Logβ120 (Fe3+) ([2]; 0.1M aqueous NaCl): Logβ120 = 27.25
CN(C)C(c1c(O)c(=O)ccn1C)C(F)(F)F (centres unmarked) [Apo7041, 2-[1-(dimethylamino)-2,2,2-trifluoroethyl]-3-hydroxy-1-methylpyridin-4(1H)-one] | – | pFe^3+ = 23.4 | 18.1 | 35.0 | 50.5 | 320 | 160 | 450 | 0.75 | 600 | – | – | – | – | – | – | – | – | – | – | pH from which the FeL3 chelate is stable ([1]; speciation plot FIG. 5): ≥ 5; Log β130 (Fe3+) ([2]; 0.1 M NaCl, fitted): 38.8; Log β131 (Fe3+) [2, 6]: 44.5; Log β132 (Fe3+) [2, 6]: 48.3; BBB penetration [4]: less favorable than deferiprone in BBB penetration
CN(C)Cc1c(O)c(=O)ccn1CC(F)(F)F [Apo7067, 2-[(dimethylamino)methyl]-3-hydroxy-1-(2,2,2-trifluoroethyl)pyridin-4(1H)-one] | – | – | 20.0 | 38.7 | 55.7 | >640 | 160 | 740 | 1.5 | 500 | 24.6 | 1.2 | 61.8 | 34.5 | 42.6 | 49.6 | 20.0 | 18.7 | 17.0 | – | BBB penetration [4]: readily penetrates the BBB
Cc1c(O)c(=O)c(C(N2CCOCC2)C(F)(F)F)cn1C (centres unmarked) [Apo7435, 3-hydroxy-1,2-dimethyl-5-(2,2,2-trifluoro-1-morpholinoethyl)pyridin-4(1H)-one] | 100 | – | 15.9 | 30.4 | 44.8 | 320 | 80 | – | – | – | 0.0 | 0.0 | 0.00 | 35.6 | 39.6 | 42.7 | 15.9 | 14.5 | 14.4 | 0.0 | –
CNC(c1cn(C)c(C)c(O)c1=O)C(F)(F)F (centres unmarked) [Apo7056, 3-Hydroxy-1,2-dimethyl-5-[2,2,2-trifluoro-1-(methylamino)ethyl]pyridin-4(1H)-one] | 97.5 | – | 18.7 | 35.9 | 51.5 | – | – | 770 | 0.56 | 1380 | 0.0 | 0.0 | 2.40 | 36.5 | 42.3 | 47.3 | 18.7 | 17.2 | 15.6 | 0.0 | –
O=c1ccn(CC(F)(F)F)c(CN2CCOCC2)c1O [Apo7323, 3-hydroxy-2-(morpholinomethyl)-1-(2,2,2-trifluoroethyl)pyridin-4(1H)-one] | – | – | 18.4 | 34.9 | 50.1 | 320 | 160 | – | – | – | 0.0 | 0.0 | 3.1 | 35.7 | 41.6 | 46.2 | 18.4 | 16.5 | 15.1 | 0.0 | –
